These results are taken from patent US12103926B2, “Compounds for treating huntington's disease” (PTC THERAPEUTICS, INC., priority 2018, dated 2024).

This assay deals with Endogenous Huntingtin Protein. The assay can be described thus: Endogenous Huntingtin Protein Assay (ELISA-based MSD electrochemiluminescence assay). The format is cell-based. Particulars: MW1 (expanded polyglutamine) or MAB2166 capture antibody; lysates. Here is the method: Compounds of Formula (I) were tested using the Meso Scale Discovery (MSD) Assay provided in International Application No. PCT/US2016/066042, filed on Dec. 11, 2016 and claiming priority to United States Provisional Application U.S. 62/265,652 filed on Dec. 10, 2015, the entire contents of which are incorporated herein by reference.
The Endogenous Huntingtin Protein assay used in Example 1 was developed using the ELISA-based MSD electrochemiluminescence assay platform.
Endogenous Huntingtin Protein Assay
Meso Scale Discovery (MSD) 96-well or 384-well plates were coated overnight at 4° C. with MW1 (expanded polyglutamine) or MAB2166 monoclonal antibody (for capture) at a concentration of 1 μg/mL in PBS (30 μL per well). Plates were then washed three times with 300 μL wash buffer (0.05% Tween-20 in PBS) and blocked (100 μL blocking buffer; 5% BSA in PBS) for 4-5 hours at room temperature with rotational shaking and then washed three times with wash buffer.
Samples (25 μL) were transferred to the antibody-coated MSD plate and incubated overnight at 4° C. After removal of the lysates, the plate was washed three times with wash buffer, and 25 μL of #5656S (Cell signaling; rabbit monoclonal) secondary antibody (diluted to 0.25 μg/mL in 0.05% Tween-20 in blocking buffer) was added to each well and incubated with shaking for 1 Hour at room temperature. Following incubation with the secondary antibody, the wells were rinsed with wash buffer after which 25 μL of goat anti-rabbit SULFO TAG secondary detection antibody (required aspect of the MSD system) (diluted to 0.25 μg/mL in 0.05% Tween-20 in blocking buffer) was added to each well and incubated with shaking for 1 hour at room temperature. After rinsing three times with wash buffer, 150 μL of read buffer T with surfactant (MSD) were added to each empty well, and the plate was imaged on a SI 6000 imager (MSD) according to manufacturers' instructions provided for 96- or 384-well plates.
With `CN(c1cnc(-c2ccc(-c3ccnc(O)c3)cc2O)cn1)C1CC(C)(C)NC(C)(C)C1` [Cpd 1, 4-(3-hydroxy-4-{5-[methyl(2,2,6,6-tetramethylpiperidin-4-yl)amino]pyrazin-2-yl}phenyl)pyridin-2-ol], the IC50 was < 0.1 µM.
The molecule `CC1(C)CC(Oc2cnc(-c3ccc(-c4cn[nH]c4)cc3O)cn2)CC(C)(C)N1` [Cpd 2, 5-(1H-pyrazol-4-yl)-2-{5-[(2,2,6,6-tetramethylpiperidin-4-yl)oxy]pyrazin-2-yl}phenol] registered an IC50 of 0.5 to 1 µM.
The molecule `CN(c1cnc(-c2ccc(-c3cn[nH]c3)cc2O)cn1)C1CC2(CCCCC2)NC2(CCCCC2)C1` (centres unmarked) [Cpd 3, 2-{5-[(7-azadispiro[5.1.5^8.3^6]hexadecan-15-yl)(methyl)amino]pyrazin-2-yl}-5-(1H-pyrazol-4-yl)phenol] returned an IC50 of 1 to 3 µM.
As for `CN(c1cnc(-c2cc(Cl)c(-c3cn[nH]c3)cc2Cl)cn1)C1CC(C)(C)NC(C)(C)C1` [Cpd 4, 5-[2,5-dichloro-4-(1H-pyrazol-4-yl)phenyl]-N-methyl-N-(2,2,6,6-tetramethylpiperidin-4-yl)pyrazin-2-amine], the figure is 1 to 3 µM; as for `CN(c1cnc(-c2ccc(-n3ccnc3)cc2O)cn1)C1CC(C)(C)NC(C)(C)C1` [Cpd 5, 5-(1H-imidazol-1-yl)-2-{5-[methyl(2,2,6,6-tetramethylpiperidin-4-yl)amino]pyrazin-2-yl}phenol], 0.5 to 1 µM.
As for `Oc1cc(-c2cn[nH]c2)ccc1-c1cnc(N2CC3CNCC3C2)cn1` (centres unmarked) [Cpd 6, 2-[5-(hexahydropyrrolo[3,4-c]pyrrol-2(1H)-yl)pyrazin-2-yl]-5-(1H-pyrazol-4-yl)phenol], the figure is 1 to 3 µM; as for `Oc1cc(-c2cn[nH]c2)ccc1-c1cnc(OC2CCNCC2)cn1` [Cpd 7, 2-{5-[(piperidin-4-yl)oxy]pyrazin-2-yl}-5-(1H-pyrazol-4-yl)phenol], 1 to 3 µM; as for `Oc1cc(-c2cn[nH]c2)ccc1-c1cnc(NC2CCNCC2)cn1` [Cpd 8, 2-{5-[(piperidin-4-yl)amino]pyrazin-2-yl}-5-(1H-pyrazol-4-yl)phenol], 1 to 3 µM.
As for `CN(c1cnc(-c2ccc(-c3cn[nH]c3C(F)(F)F)cc2O)cn1)C1CC(C)(C)NC(C)(C)C1` [Cpd 9, 2-{5-[methyl(2,2,6,6-tetramethylpiperidin-4-yl)amino]pyrazin-2-yl}-5-[5-(trifluoromethyl)-1H-pyrazol-4-yl]phenol], the figure is 1 to 3 µM; as for `CC1(C)CC(Oc2cnc(-c3ccc(-c4cn[nH]c4)c(F)c3F)cn2)CC(C)(C)N1` [Cpd 10, 2-[2,3-difluoro-4-(1H-pyrazol-4-yl)phenyl]-5-[(2,2,6,6-tetramethylpiperidin-4-yl)oxy]pyrazine], 1 to 3 µM; as for `Cc1cc(-c2cnc(N(C)C3CC(C)(C)NC(C)(C)C3)cn2)c(F)cc1-c1cn[nH]c1` [Cpd 11, 5-[2-fluoro-5-methyl-4-(1H-pyrazol-4-yl)phenyl]-N-methyl-N-(2,2,6,6-tetramethylpiperidin-4-yl)pyrazin-2-amine], 0.1 to 0.5 µM.
In the case of `Cc1[nH]ncc1-c1ccc(-c2cnc(N(C)C3CC(C)(C)NC(C)(C)C3)cn2)c(O)c1` [Cpd 12, 5-(5-methyl-1H-pyrazol-4-yl)-2-{5-[methyl(2,2,6,6-tetramethylpiperidin-4-yl)amino]pyrazin-2-yl}phenol], the IC50 was in the range of 0.5 to 1 µM.
As for `CN(c1cnc(-c2ccc(-c3cn[nH]c3)c(F)c2F)cn1)C1CC(C)(C)NC(C)(C)C1` [Cpd 13, 5-[2,3-difluoro-4-(1H-pyrazol-4-yl)phenyl]-N-methyl-N-(2,2,6,6-tetramethylpiperidin-4-yl)pyrazin-2-amine], the figure is < 0.1 µM; as for `CN(c1cnc(-c2ccc(-n3ccc(N)n3)cc2O)cn1)C1CC(C)(C)NC(C)(C)C1` [Cpd 14, 5-(3-amino-1H-pyrazol-1-yl)-2-{5-[methyl(2,2,6,6-tetramethylpiperidin-4-yl)amino]pyrazin-2-yl}phenol], 1 to 3 µM.
The figure for `CN(c1cnc(-c2cc(F)c(-c3cn[nH]c3)cc2F)cn1)C1CC(C)(C)NC(C)(C)C1` [Cpd 15, 5-[2,5-difluoro-4-(1H-pyrazol-4-yl)phenyl]-N-methyl-N-(2,2,6,6-tetramethylpiperidin-4-yl)pyrazin-2-amine] is < 0.1 µM.
The figure for `CN(c1cnc(-c2ccc(-c3cn[nH]c3)c(F)c2)cn1)C1CC(C)(C)NC(C)(C)C1` [Cpd 16, 5-[3-fluoro-4-(1H-pyrazol-4-yl)phenyl]-N-methyl-N-(2,2,6,6-tetramethylpiperidin-4-yl)pyrazin-2-amine] is 0.5 to 1 µM.
In turn, `CN(c1cnc(-c2cc(F)c(-c3cn[nH]c3)c(F)c2)cn1)C1CC(C)(C)NC(C)(C)C1` [Cpd 17, 5-[3,5-difluoro-4-(1H-pyrazol-4-yl)phenyl]-N-methyl-N-(2,2,6,6-tetramethylpiperidin-4-yl)pyrazin-2-amine] displayed an IC50 of 0.1 to 0.5 µM.
As for `CN(c1cnc(-c2ccc(-c3ccn(C)c(=O)c3)cc2O)cn1)C1CC(C)(C)NC(C)(C)C1` [Cpd 18, 4-(3-hydroxy-4-{5-[methyl(2,2,6,6-tetramethylpiperidin-4-yl)amino]pyrazin-2-yl}phenyl)-1-methylpyridin-2(1H)-one], the figure is 1 to 3 µM; as for `CN(c1cnc(-c2ccc(-n3cccn3)cc2O)cn1)C1CC(C)(C)NC(C)(C)C1` [Cpd 19, 2-{5-[methyl(2,2,6,6-tetramethylpiperidin-4-yl)amino]pyrazin-2-yl}-5-(1H-pyrazol-1-yl)phenol], 1 to 3 µM.
As for `CN(c1cnc(-c2ccc(-c3cn[nH]c3)cc2O)cn1)C1CCNCC1` [Cpd 20, 2-{5-[methyl(piperidin-4-yl)amino]pyrazin-2-yl}-5-(1H-pyrazol-4-yl)phenol], the figure is 0.5 to 1 µM; as for `Oc1cc(-c2cn[nH]c2)ccc1-c1cnc(N2CC3(CCNC3)C2)cn1` [Cpd 21, 2-[5-(2,6-diazaspiro[3.4]octan-2-yl)pyrazin-2-yl]-5-(1H-pyrazol-4-yl)phenol], 1 to 3 µM.
Consider `CN(c1cnc(-c2cc(F)c(-c3cn[nH]c3)cc2O)cn1)C1CC(C)(C)NC(C)(C)C1` [Cpd 22, 4-fluoro-2-{5-[methyl(2,2,6,6-tetramethylpiperidin-4-yl)amino]pyrazin-2-yl}-5-(1H-pyrazol-4-yl)phenol], for which the IC50 is < 0.1 µM.
On to `CN(c1cnc(-c2cc(Cl)c(-c3cn[nH]c3)cc2F)cn1)C1CC(C)(C)NC(C)(C)C1` [Cpd 23, 5-[5-chloro-2-fluoro-4-(1H-pyrazol-4-yl)phenyl]-N-methyl-N-(2,2,6,6-tetramethylpiperidin-4-yl)pyrazin-2-amine], for which the IC50 fell in the range of 0.1 to 0.5 µM.
The figure for `CN(c1cnc(-c2cc(C#N)c(-c3cn[nH]c3)cc2F)cn1)C1CC(C)(C)NC(C)(C)C1` [Cpd 24, 4-fluoro-5-{5-[methyl(2,2,6,6-tetramethylpiperidin-4-yl)amino]pyrazin-2-yl}-2-(1H-pyrazol-4-yl)benzonitrile] is < 0.1 µM; for `Oc1cc(-c2cn[nH]c2)ccc1-c1cnc(OC2CC3CCC(C2)N3)cn1` (centres unmarked) [Cpd 25, 2-[5-(8-azabicyclo[3.2.1]oct-3-yloxy)pyrazin-2-yl]-5-(1H-pyrazol-4-yl)phenol] it is 3 to 9 µM; for `CN(c1cnc(-c2ccc(-c3cn[nH]c3)cc2O)cn1)C1CC(C)(C)NC(C)(C)C1` [Cpd 26, 2-{5-[methyl(2,2,6,6-tetramethylpiperidin-4-yl)amino]pyrazin-2-yl}-5-(1H-pyrazol-4-yl)phenol] it is < 0.1 µM.

Usually IC50 stands for the concentration that inhibits the measured activity by half. High values mean weaker potency, low ones greater potency.
